How the values were obtained:
[1] = biological target: NMDA receptor glycine B site (Rattus norvegicus, UniProt P35439); experiment: Whole cell patch-clamp recordings, rat hippocampal neurons (NMDA/D-Serine currents); type: cell-based; conditions: NMDA 200 μM + D-Serine 1 μM, -70 mV, read-out: NMDA-PC-r-HIC-NAM - IC50
Method: Antagonistic potencies of the test compounds are functionally evaluated using electrophysiological whole cell patch-clamp recordings and/or fluorometric intracellular Ca^2+-imaging (FLIPR) screens.
Cell preparation is performed as described by Parsons, et al. (Neuropharmacology, 1998, 37(6), 719-727). The female Sprague-Dawley rat is anaesthetised by placing in a saturated CO2-euthanasia chamber under further quiet CO2-influx. Under these conditions the rat loses consciousness after a few seconds and is then sacrificed by cervical dislocation. After opening the abdominal cavity, embryos (E20) are removed and stored in ice cold Ca^2+- and Mg^2+-free Hank's Buffered Salt Solution (pH 7.3), containing 4 g/l glucose (HBSS-CMF). Hippocampi are then isolated from the brains of at least 8 embryos after decapitation, transferred into ice cold HBSS-CMF and washed 3 to 4 times.
Hippocampi are pre-incubated for 8 min with a 0.66% trypsin (Sigma-Aldrich) and 0.1% (20 U/ml) DNAase solution (Sigma-Aldrich) in Ca^2+-free Phosphate Buffered Saline (PBS-CF) and washed 3 times with HBSS-CMF. Cells are then mechanically dissociated by trituration in a PBS-CF solution containing 0.05% (10 U/ml) DNAase and 0.3% of the trypsin inhibitor ovomucoid (all from Sigma-Aldrich). The cells are then centrifuged at 180×g for 10 minutes, and the cell pellet re-suspended in basal Minimum essential medium (MEM, Invitrogen, Karlsruhe, Germany), again carefully triturated to ensure maximal dissociation and finally plated in the flexiPERM inserts (Thermo Fisher Scientific, Langenselbold, Germany) at a density of 15×10^3 cells/cm^2 (0.5 ml/insert) onto poly-DL-ornithine (Sigma) and mouse laminin (Invitrogen) pre-coated plastic petri dishes. After 1 hour the cells become attached to the bottom of the dish and the inserts may be removed. The cells are then nourished with 2 ml MEM supplemented with 5% foetal calf serum (FCS) and 5% horse serum and incubated at 37° C. with 95% air and 5% CO2 at 95% humidity. After 4 days in vitro (DIV) further glial mitosis is inhibited by adding 10 μl of AraC (5 μM endconcentration). The medium is completely exchanged after an additional 2 DIV and again, but only partly (50%), after 8 DIV. The cells are used for electrophysiological recordings after 11-15 DIV.
Cells are visualised using an inverted microscope and selected for patching based upon their position and morphology. Voltage clamp recordings are made in the whole cell configuration of the patch clamp technique at a holding potential of −70 mV with the aid of an EPC-10 amplifier in combination with pipette manipulator. Patch clamp pipettes are pulled from borosilicate glass using a horizontal puller (P-97 Puller, Sutter Instruments, USA) and, when filled with intracellular solution, have resistances of 1-4 MΩ.
Solutions are delivered via a home-made gravity driven very fast perfusion system (<10 ms) including valves to switch flow on and off in combination with a stepper motor-driven double-barrelled theta glass application pipette in order to expose cells to either agonist-free or agonist-containing solutions in presence or absence of antagonist.
The intracellular solution used consists of: 120 mM CsCl, 10 mM EGTA, 1 mM MgCl2, 200 μM CaCl2, 10 mM glucose and 22 mM tetraethyl ammonium chloride (TEA-CL). The corresponding extracellular bath solution contains: 140 mM NaCl, 3 mM KCl, 10 mM glucose, 10 mM HEPES, 1.5 mM CaCl2 and 4.5 mM sucrose (all from Sigma-Aldrich) pH 7.3, and is supplemented with 0.3 μM tetrodotoxin (TTX, Tocris, Bristol, U.K.) to block voltage-activated sodium channels and 0.25 μM bicuculline (Sigma-Aldrich) to block GABAA receptors. […]

[2] = biological target: T1, glycine binding pocket of the NMDA receptor (Rattus norvegicus, UniProt P35439); experiment: [3H]MDL-105,519 displacement studies (rat cortical membranes); conditions: displacement of 2 nM [3H]-MDL-105,519, rat cortical membranes; read-out: NMDA-MDL 105519-r-CTX - IC50
T1 construct: For isolation of the cell membranes, the cortices are homogenized; from tissue; host or cells: rat cerebral cortex membranes (male Sprague-Dawley)

O=C(COc1cc(C(=O)O)cc2cc(Cl)cc(Cl)c12)Nc1ccccc1OCc1nnn[nH]1 [Example 60, 5,7-Dichloro-4-{[2-(1H-tetrazol-5-ylmethoxy)-phenylcarbamoyl]-methoxy}-naphthalene-2-carboxylic acid]
IC50 [1]: 0.065 µM
IC50 [2]: 0.203 µM

O=C(O)Cc1cccc(NC(=O)COc2cc(C(=O)O)cc3cc(Cl)cc(Cl)c23)c1 [Example 13, 4-[(3-Carboxymethylphenylcarbamoyl)-methoxy]-5,7-dichloronaphthalene-2-carboxylic acid]
IC50 [1]: 0.178 µM
IC50 [2]: 0.457 µM

O=C(O)COc1ccccc1CNC(=O)COc1cc(C(=O)O)cc2cc(Cl)cc(Cl)c12 [Example 59, 4-[(2-Carboxymethoxy-benzylcarbamoyl)-methoxy]-5,7-dichloro-naphthalene-2-carboxylic acid]
IC50 [1]: 0.059 µM
IC50 [2]: 0.083 µM

CN(C(=O)COc1cc(C(=O)O)cc2cc(Cl)cc(Cl)c12)c1ccccc1C(=O)O [Example 20, 4-{[(2-Carboxyphenyl)-methylcarbamoyl]-methoxy}-5,7-dichloronaphthalene-2-carboxylic acid]
IC50 [1]: 0.198 µM
IC50 [2]: 0.405 µM

NCc1ccc(NC(=O)COc2cc(C(=O)O)cc3cc(Cl)cc(Cl)c23)c(OCC(=O)O)c1 [Example 34, 4-[(4-Aminomethyl-2-carboxymethoxyphenylcarbamoyl)-methoxy]-5,7-dichloronaphthalene-2-carboxylic acid]
IC50 [1]: 0.023 µM
IC50 [2]: 0.0119 µM

O=C(O)COc1ccccc1NC(=O)COc1cc(C(=O)O)cc2cc(Cl)cc(Cl)c12 [Example 42, 4-[(2-Carboxymethoxyphenylcarbamoyl)-methoxy]-5,7-dichloronaphthalene-2-carboxylic acid]
IC50 [1]: 0.05 µM
IC50 [2]: 0.055 µM

O=C(COc1cc(C(=O)O)cc2cc(Cl)cc(Cl)c12)Nc1ccccc1CO [Example 5, 5,7-Dichloro-4-[(2-hydroxymethylphenylcarbamoyl)-methoxy]-naphthalene-2-carboxylic acid]
IC50 [1]: 0.258 µM
IC50 [2]: 0.562 µM

O=C(O)COc1cc(C(=O)O)cc2cc(Cl)cc(Cl)c12 [Example 1, 4-Carboxymethoxy-5,7-dichloronaphthalene-2-carboxylic acid]
IC50 [1]: 0.85 µM
IC50 [2]: 1.18 µM

O=C(COc1cc(C(=O)O)cc2cc(Cl)cc(Cl)c12)Nc1ccccc1OCC(=O)N1CCOCC1 [Example 54, 5,7-Dichloro-4-{[2-(2-morpholin-4-yl-2-oxo-ethoxy)-phenylcarbamoyl]-methoxy}-naphthalene-2-carboxylic acid]
IC50 [1]: 0.169 µM
IC50 [2]: 0.228 µM

O=C(O)Cc1ccccc1NC(=O)COc1cc(C(=O)O)cc2cc(Cl)cc(Cl)c12 [Example 15, 4-[(2-Carboxymethylphenylcarbamoyl)-methoxy]-5,7-dichloronaphthalene-2-carboxylic acid]
IC50 [1]: 0.356 µM
IC50 [2]: 0.503 µM

O=C(O)c1cc(OCC(=O)N2CCOc3c(CO)cccc32)c2c(Cl)cc(Cl)cc2c1 [Example 78, 5,7-Dichloro-4-[2-(8-hydroxymethyl-2,3-dihydro-benzo[1,4]oxazin-4-yl)-2-oxo-ethoxy]-naphthalene-2-carboxylic acid]
IC50 [1]: 0.253 µM
IC50 [2]: 0.988 µM

O=C(O)Cc1ccc(NC(=O)COc2cc(C(=O)O)cc3cc(Cl)cc(Cl)c23)cc1 [Example 7, 4-[(4-Carboxymethylphenylcarbamoyl)-methoxy]-5,7-dichloronaphthalene-2-carboxylic acid]
IC50 [1]: 0.51 µM
IC50 [2]: 0.958 µM

COCC(Oc1cc(C(=O)O)cc2cc(Cl)cc(Cl)c12)C(=O)Nc1ccccc1OC (stereo not shown) [Example 74, 5,7-Dichloro-4-[2-methoxy-1-(2-methoxy-phenylcarbamoyl)-ethoxy]-naphthalene-2-carboxylic acid]
IC50 [1]: 0.288 µM
IC50 [2]: 1.01 µM

O=C(COc1cc(C(=O)O)cc2cc(Cl)cc(Cl)c12)NCc1ccccc1 [Example 18, 4-(Benzylcarbamoylmethoxy)-5,7-dichloro-naphthalene-2-carboxylic acid]
IC50 [1]: 0.465 µM
IC50 [2]: 0.988 µM

O=C(COc1cc(C(=O)O)cc2cc(Cl)cc(Cl)c12)Nc1ccccc1C(=O)O [Example 3, 4-[(2-Carboxy-phenylcarbamoyl)-methoxy]-5,7-dichloro-naphthalene-2-carboxylic acid]
IC50 [1]: 0.493 µM
IC50 [2]: 0.765 µM

CN(C(=O)COc1cc(C(=O)O)cc2cc(Cl)cc(Cl)c12)c1ccc(C(=O)O)cc1 [Example 14, 4-{[(4-Carboxy-phenyl)-methylcarbamoyl]-methoxy}-5,7-dichloronaphthalene-2-carboxylic acid]
IC50 [1]: 0.727 µM
IC50 [2]: 4.34 µM

O=C(O)c1cc(OCC(=O)N2CCCc3ccccc32)c2c(Cl)cc(Cl)cc2c1 [Example 50, 5,7-Dichloro-4-[2-(3,4-dihydro-2H-quinolin-1-yl)-2-oxo-ethoxy]-naphthalene-2-carboxylic acid]
IC50 [1]: 0.542 µM
IC50 [2]: 1.19 µM

From patent US20120220577A1, “GLYCINE B ANTAGONISTS” (Merz Pharma GmbH & Co KgaA, priority 2009, published 2012)
